This note sets out measurements from ChEMBL document CHEMBL1201862, “PubChem BioAssay data set” (2004).

Calls of active or inactive are those of the source.

Series [1] addresses DNA dC->dU-editing enzyme APOBEC-3A (Homo sapiens, UniProt P31941). In words: Dose Response confirmation of small molecule APOBEC3A DNA Deaminase Inhibitors via a fluorescence-based single-stranded DNA deaminase assay. [Related pubchem assays (depositor defined):AID493011, AID493024]. Type of series: functional.
Series [2] has as its target T1, RNA-binding protein pos-1 (Caenorhabditis elegans, UniProt G5EF15).
T1 sequence (G5EF15 whole entry): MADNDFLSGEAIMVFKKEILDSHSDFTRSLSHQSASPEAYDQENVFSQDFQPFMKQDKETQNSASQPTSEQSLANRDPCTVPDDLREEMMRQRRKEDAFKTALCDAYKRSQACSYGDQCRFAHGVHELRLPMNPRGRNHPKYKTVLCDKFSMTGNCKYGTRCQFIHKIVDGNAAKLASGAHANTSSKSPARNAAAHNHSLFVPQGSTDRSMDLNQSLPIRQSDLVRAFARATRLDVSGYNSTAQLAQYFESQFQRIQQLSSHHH
The experiment in a line: inhibitors of POS-1/mex-3 RNA binding, dose response, biochemical, fluorescence polarization (AID 1964).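 Further: purified POS-1 fused to maltose binding protein made in E. coli; potency of compounds blocking POS-1 binding to fluorescent RNA.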

Series [3] concerns the target T2, Zinc finger protein mex-5 (Caenorhabditis elegans, UniProt Q9XUB2).
T2 sequence (Q9XUB2 whole entry): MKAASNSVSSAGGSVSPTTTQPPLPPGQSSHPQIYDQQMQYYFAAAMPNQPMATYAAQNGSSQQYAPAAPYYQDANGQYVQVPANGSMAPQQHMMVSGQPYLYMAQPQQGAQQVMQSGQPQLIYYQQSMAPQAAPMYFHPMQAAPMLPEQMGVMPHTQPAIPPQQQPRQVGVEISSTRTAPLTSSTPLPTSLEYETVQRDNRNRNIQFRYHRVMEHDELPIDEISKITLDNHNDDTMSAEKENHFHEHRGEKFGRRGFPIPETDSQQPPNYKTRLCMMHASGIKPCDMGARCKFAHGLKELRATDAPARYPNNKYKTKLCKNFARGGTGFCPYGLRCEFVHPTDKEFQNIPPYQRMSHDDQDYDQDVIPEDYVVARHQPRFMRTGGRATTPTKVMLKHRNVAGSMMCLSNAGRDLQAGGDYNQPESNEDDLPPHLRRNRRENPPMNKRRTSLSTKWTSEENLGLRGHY
In words: MEX-5/TCR-2 RNA interaction inhibitors, dose response, biochemical, C. elegans, fluorescence polarization (AID 1960).

Series [4] has as its target DNA dC->dU-editing enzyme APOBEC-3G (Homo sapiens, UniProt Q9HC16). In kind it is functional.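 Further: Dose-response counterscreen measuring inhibition of APOBEC3G DNA deaminase activity, run while confirming APOBEC3A inhibitors.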
Series [5] has as its target T3, Carboxy-terminal domain RNA polymerase II polypeptide A small phosphatase 1 (Homo sapiens, UniProt Q9GZU7).
T3 sequence (Q9GZU7 whole entry): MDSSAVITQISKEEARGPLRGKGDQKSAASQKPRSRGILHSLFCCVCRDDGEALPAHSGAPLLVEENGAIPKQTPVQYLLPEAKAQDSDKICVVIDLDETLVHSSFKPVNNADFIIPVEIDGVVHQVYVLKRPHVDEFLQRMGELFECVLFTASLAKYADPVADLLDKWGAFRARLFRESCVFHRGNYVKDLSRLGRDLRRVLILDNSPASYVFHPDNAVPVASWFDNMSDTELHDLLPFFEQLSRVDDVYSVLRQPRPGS
In words: inhibitors of CTDSP1, concentration-response testing, biochemical assay, absorbance-based, actives from ultra-high-throughput screening (AID 540297). Type of series: functional.

The target of series [6] is Genome polyprotein (dengue virus type 2, UniProt P29990). The experiment in a line: Dengue-2 NS5 methyltransferase inhibitors, primary screen, biochemical, confirmation dose response (AID 588689). In kind it is functional.
Series [7] in a line: HEp-2 cell cytotoxicity, dose response, cytotoxicity control for RSV inhibitor project, HTS (AID 2410). In kind it is functional. To be noted: human respiratory syncytial virus.
The target in series [8] is G-protein coupled receptor 55 (Homo sapiens, UniProt Q9Y2T6). The experiment in a line: GPR55 antagonists blocking LPI-driven arrestin recruitment, primary screen, imaging, U2OS, beta-arrestin-GFP, LPI agonist (AID 2013).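 Further: antagonist potency measured as reduced agonist-driven arrestin aggregation.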 Type of series: functional.
Chain of G-protein coupled receptor 55 (Q9Y2T6 whole entry): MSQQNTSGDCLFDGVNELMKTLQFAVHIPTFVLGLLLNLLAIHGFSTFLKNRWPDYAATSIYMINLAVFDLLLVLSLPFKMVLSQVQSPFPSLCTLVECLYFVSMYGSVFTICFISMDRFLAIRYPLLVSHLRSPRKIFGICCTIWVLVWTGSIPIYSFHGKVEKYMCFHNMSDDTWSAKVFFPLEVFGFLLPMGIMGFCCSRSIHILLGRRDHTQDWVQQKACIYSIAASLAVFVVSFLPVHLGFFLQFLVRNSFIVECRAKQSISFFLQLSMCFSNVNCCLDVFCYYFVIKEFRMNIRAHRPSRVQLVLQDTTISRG
The test system of series [9] is Escherichia coli. The experiment in a line: microbe, parasite or virus in culture.
For series [10], the target named is Peroxisome proliferator-activated receptor gamma/Nuclear receptor coactivator 1 (Homo sapiens, UniProt P37231). In kind it is functional.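 Further: agonist potency as compounds enhance coactivator SRC-1 recruitment to PPARgamma.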
Chain of Peroxisome proliferator-activated receptor gamma/Nuclear receptor coactivator 1 (P37231 whole entry): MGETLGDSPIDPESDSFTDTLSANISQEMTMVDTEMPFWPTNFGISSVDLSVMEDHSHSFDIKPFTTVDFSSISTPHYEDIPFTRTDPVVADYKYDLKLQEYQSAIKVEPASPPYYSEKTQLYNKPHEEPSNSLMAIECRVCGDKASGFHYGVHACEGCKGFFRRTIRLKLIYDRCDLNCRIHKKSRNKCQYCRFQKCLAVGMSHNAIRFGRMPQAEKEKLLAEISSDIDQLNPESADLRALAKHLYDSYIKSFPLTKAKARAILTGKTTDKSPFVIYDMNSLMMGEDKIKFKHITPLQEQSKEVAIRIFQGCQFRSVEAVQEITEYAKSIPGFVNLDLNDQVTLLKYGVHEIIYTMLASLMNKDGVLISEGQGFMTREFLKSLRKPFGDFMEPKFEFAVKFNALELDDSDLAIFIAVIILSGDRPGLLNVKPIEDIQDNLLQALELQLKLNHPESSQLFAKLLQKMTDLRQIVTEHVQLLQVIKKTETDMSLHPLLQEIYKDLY
Chain of Peroxisome proliferator-activated receptor gamma/Nuclear receptor coactivator 1 (Q15788 whole entry, further chain): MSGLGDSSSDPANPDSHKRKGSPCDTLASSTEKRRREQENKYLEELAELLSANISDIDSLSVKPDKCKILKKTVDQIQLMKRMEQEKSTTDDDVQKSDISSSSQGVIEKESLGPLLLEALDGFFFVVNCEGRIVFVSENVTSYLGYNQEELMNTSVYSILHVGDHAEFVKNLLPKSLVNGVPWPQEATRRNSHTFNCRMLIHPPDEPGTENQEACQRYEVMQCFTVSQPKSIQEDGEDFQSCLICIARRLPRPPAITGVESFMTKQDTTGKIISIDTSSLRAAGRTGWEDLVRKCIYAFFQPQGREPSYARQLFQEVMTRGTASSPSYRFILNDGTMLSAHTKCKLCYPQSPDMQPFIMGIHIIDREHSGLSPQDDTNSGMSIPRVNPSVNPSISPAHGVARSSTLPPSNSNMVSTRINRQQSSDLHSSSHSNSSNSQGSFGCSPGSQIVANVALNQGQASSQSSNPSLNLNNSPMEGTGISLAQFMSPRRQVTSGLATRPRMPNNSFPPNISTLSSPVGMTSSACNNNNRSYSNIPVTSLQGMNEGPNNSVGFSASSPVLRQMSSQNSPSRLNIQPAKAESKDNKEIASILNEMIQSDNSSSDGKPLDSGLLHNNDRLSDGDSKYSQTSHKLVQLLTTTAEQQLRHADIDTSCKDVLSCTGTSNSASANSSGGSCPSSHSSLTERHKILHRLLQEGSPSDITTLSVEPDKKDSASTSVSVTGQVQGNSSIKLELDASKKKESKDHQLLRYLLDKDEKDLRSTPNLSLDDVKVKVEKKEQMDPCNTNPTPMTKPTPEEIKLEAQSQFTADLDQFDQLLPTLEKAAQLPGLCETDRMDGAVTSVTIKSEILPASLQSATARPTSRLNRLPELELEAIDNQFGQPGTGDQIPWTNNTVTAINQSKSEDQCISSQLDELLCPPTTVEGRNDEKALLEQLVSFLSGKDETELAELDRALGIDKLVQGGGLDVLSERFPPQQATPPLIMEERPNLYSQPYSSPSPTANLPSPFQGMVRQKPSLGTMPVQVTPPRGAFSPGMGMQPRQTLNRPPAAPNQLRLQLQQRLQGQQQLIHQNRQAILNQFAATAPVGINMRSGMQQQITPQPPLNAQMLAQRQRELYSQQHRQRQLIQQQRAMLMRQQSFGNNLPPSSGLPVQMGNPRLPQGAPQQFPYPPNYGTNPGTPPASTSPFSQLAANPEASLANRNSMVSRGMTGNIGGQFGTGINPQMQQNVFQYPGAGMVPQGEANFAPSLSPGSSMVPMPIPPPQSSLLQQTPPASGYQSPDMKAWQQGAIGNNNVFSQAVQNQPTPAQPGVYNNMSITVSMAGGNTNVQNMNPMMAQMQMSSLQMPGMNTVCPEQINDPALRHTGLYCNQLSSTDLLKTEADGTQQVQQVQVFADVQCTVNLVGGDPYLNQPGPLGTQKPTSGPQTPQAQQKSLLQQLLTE
The target of series [11] is Peroxisome proliferator-activated receptor gamma/Nuclear receptor coactivator 3 (Homo sapiens, UniProt P37231). In kind it is functional.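 Further: agonist potency for raising coactivator recruitment to the receptor.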
Chain of Peroxisome proliferator-activated receptor gamma/Nuclear receptor coactivator 3 (P37231 whole entry): as the sequence (P37231 whole entry) above
Chain of Peroxisome proliferator-activated receptor gamma/Nuclear receptor coactivator 3 (Q9Y6Q9 whole entry, further chain): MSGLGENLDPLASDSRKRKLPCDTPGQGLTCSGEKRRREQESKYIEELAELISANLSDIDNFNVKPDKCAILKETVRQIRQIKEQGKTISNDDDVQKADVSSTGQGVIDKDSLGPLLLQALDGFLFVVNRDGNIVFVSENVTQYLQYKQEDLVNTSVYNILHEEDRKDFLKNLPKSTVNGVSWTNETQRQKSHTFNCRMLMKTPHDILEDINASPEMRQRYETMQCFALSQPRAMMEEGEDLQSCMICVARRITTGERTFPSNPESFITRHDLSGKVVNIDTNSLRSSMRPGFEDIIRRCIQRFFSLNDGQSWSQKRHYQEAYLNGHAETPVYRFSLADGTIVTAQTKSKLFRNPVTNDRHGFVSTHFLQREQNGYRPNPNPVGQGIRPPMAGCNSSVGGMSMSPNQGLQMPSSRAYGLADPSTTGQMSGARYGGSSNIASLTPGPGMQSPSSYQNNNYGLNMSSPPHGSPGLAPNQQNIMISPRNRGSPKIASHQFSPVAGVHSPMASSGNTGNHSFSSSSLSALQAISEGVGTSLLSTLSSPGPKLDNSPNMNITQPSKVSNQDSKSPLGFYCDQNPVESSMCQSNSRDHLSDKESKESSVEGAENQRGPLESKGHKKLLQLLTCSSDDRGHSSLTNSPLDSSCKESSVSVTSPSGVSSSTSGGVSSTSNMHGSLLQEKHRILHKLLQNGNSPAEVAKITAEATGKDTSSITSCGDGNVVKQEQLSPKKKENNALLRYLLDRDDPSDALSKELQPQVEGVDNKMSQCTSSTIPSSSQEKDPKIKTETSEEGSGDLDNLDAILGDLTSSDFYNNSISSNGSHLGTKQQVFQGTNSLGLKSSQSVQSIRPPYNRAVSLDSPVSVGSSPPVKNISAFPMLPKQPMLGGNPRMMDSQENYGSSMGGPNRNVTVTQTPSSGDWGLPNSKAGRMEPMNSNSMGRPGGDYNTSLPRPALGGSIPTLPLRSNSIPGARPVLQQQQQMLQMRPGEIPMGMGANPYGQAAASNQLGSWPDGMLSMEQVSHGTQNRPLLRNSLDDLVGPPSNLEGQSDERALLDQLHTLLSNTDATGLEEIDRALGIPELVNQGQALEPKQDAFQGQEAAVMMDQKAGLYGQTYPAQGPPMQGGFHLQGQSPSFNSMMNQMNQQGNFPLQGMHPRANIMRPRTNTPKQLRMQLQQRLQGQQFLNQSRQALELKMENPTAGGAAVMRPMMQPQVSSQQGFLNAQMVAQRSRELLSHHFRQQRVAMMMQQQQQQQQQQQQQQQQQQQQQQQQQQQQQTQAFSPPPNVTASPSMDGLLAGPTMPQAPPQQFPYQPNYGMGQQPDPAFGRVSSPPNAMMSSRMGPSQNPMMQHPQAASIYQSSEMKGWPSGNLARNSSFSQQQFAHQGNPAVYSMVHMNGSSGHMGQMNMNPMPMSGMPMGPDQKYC
For series [12], the target named is Peroxisome proliferator-activated receptor gamma/Nuclear receptor coactivator 2 (Homo sapiens, UniProt P37231). In kind it is functional.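 Further: agonist potency for raising coactivator recruitment to the receptor.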
Series [13] has as its target Induced myeloid leukemia cell differentiation protein Mcl-1 (Homo sapiens, UniProt Q07820). Type of series: functional.
The test system of series [14] is HEK293. The experiment in a line: cells. Type of series: functional, cell-based. Particulars: Homo sapiens.
Series [15] concerns HEK293. The experiment in a line: cells. Type of series: functional, cell-based. To be noted: Homo sapiens. The source holds these as a separate data set.
In series [16] the test system is HEK293. In words: NOD2 signaling inhibitors in MDP-stimulated cells, cell-based, uHTS, luminescence (AID 2001). To be noted: Homo sapiens. In kind it is functional.
The test system of series [17] is HEK293. The experiment in a line: NOD1 signaling inhibitors, primary screen, cell-based, luminescence, uHTS (AID 1578). In kind it is functional. Particulars: Homo sapiens.
Series [18] has as its target Nucleotide-binding oligomerization domain-containing protein 2 (Homo sapiens, UniProt Q9HC29). The experiment in a line: NOD2 signaling inhibitors, cell-based, luminescence, uHTS, HEK293 (AID 1566). In kind it is functional.
Series [19] relates to HEK293. The experiment in a line: cells. In kind it is functional, cell-based. To be noted: Homo sapiens. The source holds these as a separate data set.
In series [20] the target is T4, Alkaline phosphatase, tissue-nonspecific isozyme (Homo sapiens, UniProt P05186).
T4 sequence (P05186 whole entry): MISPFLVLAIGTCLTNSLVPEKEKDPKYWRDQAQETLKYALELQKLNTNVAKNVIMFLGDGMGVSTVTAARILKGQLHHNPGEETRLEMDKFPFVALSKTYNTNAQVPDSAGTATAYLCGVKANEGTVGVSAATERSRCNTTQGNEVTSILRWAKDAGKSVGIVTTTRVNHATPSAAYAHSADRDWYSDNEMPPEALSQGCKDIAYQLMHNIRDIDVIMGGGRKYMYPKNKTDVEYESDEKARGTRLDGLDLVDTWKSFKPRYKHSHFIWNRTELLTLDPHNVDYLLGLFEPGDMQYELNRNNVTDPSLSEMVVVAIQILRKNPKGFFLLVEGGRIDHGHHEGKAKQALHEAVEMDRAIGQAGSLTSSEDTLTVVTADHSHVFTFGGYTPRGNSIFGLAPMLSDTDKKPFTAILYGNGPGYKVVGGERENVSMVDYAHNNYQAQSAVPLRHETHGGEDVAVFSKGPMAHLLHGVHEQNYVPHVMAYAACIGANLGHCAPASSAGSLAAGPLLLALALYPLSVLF
The experiment in a line: human TNAP enzyme inhibitors, SAR follow-up, biochemical, luminescent, dose response (AID 1056).

Series [21] concerns the target Large T antigen (Simian virus 40, UniProt P03070). Type of series: functional, Betapolyomavirus macacae.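 Further: Confirmatory-stage PubChem screen for compounds that inhibit SV40 T antigen.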
In series [22] the target is Cytochrome P450 2C9 (Homo sapiens, UniProt P11712).
The target of series [23] is T5, Rac GTPase-activating protein 1 (Homo sapiens, UniProt Q9H0H5).
T5 sequence (Q9H0H5 whole entry): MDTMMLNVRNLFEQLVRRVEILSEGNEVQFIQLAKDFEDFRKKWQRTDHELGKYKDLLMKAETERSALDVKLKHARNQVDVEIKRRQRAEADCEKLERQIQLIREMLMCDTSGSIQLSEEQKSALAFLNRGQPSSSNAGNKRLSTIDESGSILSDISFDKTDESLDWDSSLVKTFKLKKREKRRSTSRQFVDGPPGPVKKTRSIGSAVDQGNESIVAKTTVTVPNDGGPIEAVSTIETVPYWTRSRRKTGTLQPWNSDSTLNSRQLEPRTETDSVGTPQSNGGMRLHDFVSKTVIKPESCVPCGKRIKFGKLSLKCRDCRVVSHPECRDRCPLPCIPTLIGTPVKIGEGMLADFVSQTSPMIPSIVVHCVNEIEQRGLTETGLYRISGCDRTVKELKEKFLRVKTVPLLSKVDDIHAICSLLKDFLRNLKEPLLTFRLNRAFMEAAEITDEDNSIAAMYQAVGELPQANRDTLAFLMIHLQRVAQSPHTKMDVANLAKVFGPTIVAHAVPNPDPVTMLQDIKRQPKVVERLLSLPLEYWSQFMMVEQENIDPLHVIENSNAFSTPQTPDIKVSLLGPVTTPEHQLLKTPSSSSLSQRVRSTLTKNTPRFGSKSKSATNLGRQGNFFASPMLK
The experiment in a line: MgcRacGAP GTPase-activating activity inhibitors, confirmation, biochemical, ADP Hunter fluorescence, primary and confirmatory (AID 624330). In kind it is functional.

Series [24] in a line: NIH-3T3 fibroblast cytotoxicity, dose response, cytotoxicity control, cell-based, fluorescence, Alamar Blue, secondary assay (AID 2327).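 Further: NIH-3T3 mouse fibroblasts cultured with fluconazole at 8 µg/mL.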 Type of series: functional.
Series [25] is described as follows: C. albicans growth with fluconazole, confirmation, fluorescence, retest (AID 2467). In kind it is functional, cell-based.
Series [26] addresses T6, Ubiquitin-conjugating enzyme E2 N (Homo sapiens, UniProt P61088).
T6 sequence (P61088 whole entry): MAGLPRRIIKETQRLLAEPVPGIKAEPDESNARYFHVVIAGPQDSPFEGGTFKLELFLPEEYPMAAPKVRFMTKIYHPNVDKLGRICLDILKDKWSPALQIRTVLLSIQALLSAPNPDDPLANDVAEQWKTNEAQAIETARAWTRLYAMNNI
In kind it is functional.

Series [27] is described as follows: cytotoxicity toward NIH3T3 fibroblasts, dose response, counter-screen, cell-based, ATP luminescence, mouse fibroblasts (AID 2010).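 Further: cells exposed to compound for about 90 hours before reading.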 In kind it is functional.
The nature of series [28]: inhibitors of intracellular T. cruzi replication, confirmation, NIH3T3 host cells, beta-gal luminescence (AID 2044).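 Further: intracellular parasites grown in NIH/3T3 mouse fibroblasts as host cells; luminescent beta-galactosidase reporter signal from transgenic T. cruzi replicating inside host cells; inhibitors lower the luminescence signal.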 In kind it is functional, cell-based.

Chain of DNA dC->dU-editing enzyme APOBEC-3A (P31941 whole entry): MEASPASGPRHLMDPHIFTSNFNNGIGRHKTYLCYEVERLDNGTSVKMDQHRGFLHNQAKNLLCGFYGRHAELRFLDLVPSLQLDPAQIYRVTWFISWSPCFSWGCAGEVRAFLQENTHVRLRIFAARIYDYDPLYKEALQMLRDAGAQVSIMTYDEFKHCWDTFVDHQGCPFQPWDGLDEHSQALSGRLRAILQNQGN
Chain of DNA dC->dU-editing enzyme APOBEC-3G (Q9HC16 whole entry, the tested form may be a part): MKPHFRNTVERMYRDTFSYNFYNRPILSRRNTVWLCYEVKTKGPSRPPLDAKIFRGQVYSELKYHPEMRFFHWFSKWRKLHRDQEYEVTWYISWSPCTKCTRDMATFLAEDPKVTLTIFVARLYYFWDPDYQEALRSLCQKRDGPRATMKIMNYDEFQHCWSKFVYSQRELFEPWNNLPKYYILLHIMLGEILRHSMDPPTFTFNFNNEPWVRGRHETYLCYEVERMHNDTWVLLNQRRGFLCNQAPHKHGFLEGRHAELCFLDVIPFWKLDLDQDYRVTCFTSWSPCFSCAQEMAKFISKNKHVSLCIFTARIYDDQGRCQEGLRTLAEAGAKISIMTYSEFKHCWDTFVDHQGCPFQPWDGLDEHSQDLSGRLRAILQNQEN

As to `Cc1cc(C(=O)O)ccc1-c1ccc(/C=C2\NC(=O)N(Cc3ccc(F)cc3)C2=O)o1`, the IC50 was 20.8 µM (active) in series [1], 42 µM (active) in [4], 3.42 µM (active) in series [5] and > 100 µM (active) in series [6]. For the same compound, the results for the EC50 in [2] and in [3] were 195 µM (active) and 191 µM (active), respectively.
In the case of `COc1cc(NS(=O)(=O)c2ccc(Nc3nc(-c4ccccc4)cs3)cc2)nc(OC)n1`, in series [7], the CC50 is 11.3 µM (active). Besides, the IC50 in series [8] is 4.49 µM (active).
With `CC(C)(C)OC(=O)[C@H](Cc1ccccc1)NC(=O)c1[nH]cnc1C(=O)NC1CCN(C(=O)OC(C)(C)C)CC1`, the AC50 in [9] is 19 µM (active). Moreover, in [8], the IC50 is 5.3 µM (active).
For the compound `CNC(=O)c1ccc(NC(=O)CC23CC4CC(CC(C4)C2)C3)cc1`, the IC50 in series [8] was 3.14 µM (active).
Take `CN(CP(=O)(O)CN(C)S(C)(=O)=O)S(C)(=O)=O`: the EC50 in series [10], in series [11] and in series [12] was > 79.4 µM (not active) each time.
Regarding `CC(C)(O)C#Cc1ccc(CN2CCN(C3CCCCC3)C(CCO)C2)cc1` (stereo not given), the IC50 in [13] is 21.2 µM (not active). Further, the EC50 in series [10], in [11] and in [12] was > 79.4 µM (not active) throughout.
Regarding `Cc1ccc(S(=O)(=O)/C(=C/Cl)NC(=O)c2ccccc2)cc1`, the IC50 in series [14] was > 20 µM (inactive); in series [15], > 20 µM (inactive); in series [16] it was 3.32 µM (active); in [19], 3.6 µM (active). Also, the EC50 in series [17] is 6.37 µM (active); in [18], 14.3 µM (active).
For `CCCCn1c(N)c(N(CCOC)C(=O)c2cc(-c3ccc(OC)c(OC)c3)nc3ccccc23)c(=O)[nH]c1=O`, the IC50 in series [1] is 7.62 µM (active); in series [4] it was 9.16 µM (active).
As to `O=C(Cn1ccnc1-c1ccccc1)c1ccc(O)c(O)c1`, in series [20], the IC50 was > 100 µM (inactive).
Take `O=C(/C=C/c1ccco1)N1CCN(S(=O)(=O)c2cccc([N+](=O)[O-])c2)CC1`: the IC50 in series [1] is 15.5 µM (active); in series [4], 23.6 µM (active).
For the compound `O=C(N/N=C/c1ccc(O)cc1)c1csc2ccccc12`, the IC50 was 13.3 µM (active) in series [21] and 42.3 µM (active) in series [23]. Besides, the EC50 in series [10], in [11] and in [12] was > 79.4 µM (not active) in each case. Also, the AC50 entry in series [22] is “inconclusive”.
Consider `Cc1ccc(O)c(/N=C/c2cc(Cc3ccccc3)cc([N+](=O)[O-])c2O)c1`, for which the IC50 in series [14] is > 20 µM (inactive); in [15], > 20 µM (inactive); in series [16], 12.4 µM (inactive); in [23] it was 37.8 µM (active); in series [19] it was > 20 µM (inactive). Further, the EC50 in series [24] is 13.8 µM (active); in series [25], 3.37 µM (active); in [17], 6.21 µM (active); in series [18] it was 9.92 µM (active).
For `Cn1c(=O)c2c(ncn2Cc2ccccc2)n(C)c1=O`, the IC50 in series [26] is > 20 µM (inactive).
Turning to `COc1ccc(/C=N/NS(=O)(=O)c2ccc(F)cc2)cc1COc1cc(F)ccc1[N+](=O)[O-]`, the EC50 in [27] was > 60 µM (inconclusive); in series [17], > 20 µM (inactive); in [28], 2.19 µM (active); in [18], > 20 µM (inactive). The IC50 is > 20 µM (inactive) in series [14], > 20 µM (inactive) in series [15], > 20 µM (inactive) in series [16] and 6.45 µM (active) in series [19].
On to `NC(=S)n1[nH]c(-c2ccc([N+](=O)[O-])cc2)c(/N=N/c2ccccc2[N+](=O)[O-])c1=O`, for which the half-inhibitory concentration (IC50) in series [13] was 23.2 µM (active); in series [5], 1.46 µM (active).
